From patent US4393225A, “AI-77 Compounds and pharmaceutically acceptable salts thereof” (Asahi Kasei Kogyo Kabushiki Kaisha, priority 1979, dated 1983)

Tested on: ulcer
Assay: Anti-ulcer test (restraint and water immersion ulcer in rats, i.p.)
Format: in vivo, Male Wistar rats
Settings: Rattus norvegicus, ip, read-out: % Inhibition of Ulcer; for inhibition in vivo at 25 mg/kg: 25 mg/kg i.p.; for inhibition in vivo at 50 mg/kg: 50 mg/kg i.p.
Method in brief: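 Compound given intraperitoneally in saline to 24 h-fasted male Wistar rats about 150 g, followed after one hour by 6 h restraint with water immersion at 21 °C. Gastric lesions graded 0, 0.5, 1, 2 or 3 on microscopic inspection and converted to percent ulcer inhibition.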

Compound	inhibition in vivo at 25 mg/kg	inhibition in vivo at 50 mg/kg
CC(C)CC(NC(=O)C(O)C(O)C(N)CC(=O)NCc1ccccc1)C1Cc2cccc(O)c2C(=O)O1 (stereo not shown) [VII-1-10]	94%	–
CCCCCCCCCCCCOc1cccc2c1C(=O)OC(C(CC(C)C)NC(=O)C(O)C1OC(=O)CC1NCC)C2 (stereo not shown) [IIIa-22-9]	–	83%
CCNC(=O)CC(NCC)C(O)C(OC(=O)CC)C(=O)NC(CC(C)C)C1Cc2cccc(OC)c2C(=O)O1 (stereo not shown) [VII-15-4]	44%	–
CC(C)CC(NC(=O)C(O)C(O)C(N)CC(=O)NCc1ccc(C(C)C)cc1)C1Cc2cccc(O)c2C(=O)O1 (stereo not shown) [VII-1-38]	94%	–
CC(C)CC(NC(=O)C(O)C1OC(=O)CC1NC(=O)CC1CCCCO1)C1Cc2cccc(O)c2C(=O)O1 (stereo not shown) [IIIa-1-24]	–	66%
CCCCCCCCOc1cccc2c1C(=O)OC(C(CC(C)C)NC(=O)C(O)C1OC(=O)CC1NC(C)=O)C2 (stereo not shown) [IIIa-5-11]	–	44%
CCCCCCCCCCCCCCCCCC(=O)Oc1cccc2c1C(=O)OC(C(CC(C)C)NC(=O)C(OC)C(O)C(N)CC(N)=O)C2 (stereo not shown) [VII-9-2]	56%	–
CNC1CC(=O)OC1C(OC(=O)C(Cl)(Cl)Cl)C(=O)NC(CC(C)C)C1Cc2cccc(O)c2C(=O)O1 (stereo not shown) [IIIa-28-3]	–	66%
CCCCOC(C(=O)NC(CC(C)C)C1Cc2cccc(OC)c2C(=O)O1)C(O)C(N)CC(N)=O (stereo not shown) [VII-7-1]	89%	–
CCOc1cccc2c1C(=O)OC(C(CC(C)C)NC(=N)C(OC(C)=O)C(O)C(N)CC(=O)O)C2 (stereo not shown) [Vb-6-1]	–	66%
CCOc1cccc2c1C(=O)OC(C(CC(C)C)NC(=O)C(O)C1OC(=O)CC1NC(=O)c1ccc(OC)cc1)C2 (stereo not shown) [IIIa-5-39]	–	44%
CSCC(=O)NC1CC(=O)OC1C(O)C(=O)NC(CC(C)C)C1Cc2cccc(O)c2C(=O)O1 (stereo not shown) [IIIa-1-44]	–	66%
CCCCOc1cccc2c1C(=O)OC(C(CC(C)C)NC(=O)C(OC)C(O)C(CC(=O)NCC)NCC)C2 (stereo not shown) [VII-16-4]	44%	–
CCNC(CC(N)=O)C(O)C(OC)C(=O)NC(CC(C)C)C1Cc2cccc(O)c2C(=O)O1 (stereo not shown) [VII-17-3]	89%	–
CC(C)CC(NC(=O)C(O)C1OC(=O)CC1NC(=O)c1ccc(O)cc1)C1Cc2cccc(O)c2C(=O)O1 (stereo not shown) [IIIa-1-35]	–	66%
CCCCOc1cccc2c1C(=O)OC(C(CC(C)C)NC(=O)C(O)C(O)C(CC(=O)NCC)NC(C)=O)C2 (stereo not shown) [VII-32-1]	66%	–
CCCCCSc1ccc(C(=O)NC2CC(=O)OC2C(O)C(=O)NC(CC(C)C)C2Cc3cccc(O)c3C(=O)O2)cc1 (stereo not shown) [IIIa-1-47]	–	56%
CCOc1cccc2c1C(=O)OC(C(CC(C)C)NC(=O)C(O)C1OC(=O)CC1NC(=O)c1ccc(C(=O)OC)cc1)C2 (stereo not shown) [IIIa-5-49]	–	33%
CCNC1CC(=O)OC1C(OC(=O)CC)C(=O)NC(CC(C)C)C1Cc2cccc(O)c2C(=O)O1 (stereo not shown) [IIIa-19-9]	–	66%
CCOc1cccc2c1C(=O)OC(C(CC(C)C)NC(=O)C(O)C1OC(=O)CC1NCCCCBr)C2 (stereo not shown) [IIIa-22-25]	–	89%
CNC1CC(=O)OC1C(OC(C)=O)C(=O)NC(CC(C)C)C1Cc2cccc(O)c2C(=O)O1 (stereo not shown) [IIIa-28-1]	–	66%

Compound	inhibition in vivo at 25 mg/kg	inhibition in vivo at 50 mg/kg
C/C=C/C(=O)OC(C(=N)NC(CC(C)C)C1Cc2cccc(O)c2C(=O)O1)C(O)C(N)CC(=O)O (stereo not shown) [Vb-2-3]	–	66%
CCCCNC(CC(=O)O)C(O)C(O)C(=N)NC(CC(C)C)C1Cc2cccc(O)c2C(=O)O1 (stereo not shown) [Vb-10-2]	–	100%
COC(C(=N)NC(CC(C)C)C1Cc2cccc(O)c2C(=O)O1)C(O)C(N)CC(=O)O (stereo not shown) [Vb-8-1]	–	78%
CC(C)CC(NC(=O)C(O)C(O)C(N)CC(=O)NCCc1ccc2ccccc2c1)C1Cc2cccc(O)c2C(=O)O1 (stereo not shown) [VII-1-19]	78%	–
CC(C)CC(NC(=O)C(O)C1OC(=O)CC1N)C1Cc2cccc(OCc3ccc4ccccc4c3)c2C(=O)O1 (stereo not shown) [IIIa-13-17]	–	72%
CC(C)CC(NC(=O)C(O)C1C=CC(=O)O1)C1Cc2cccc(OC(=O)C(C)C)c2C(=O)O1 (stereo not shown) [IVa-3-10]	–	44%
CC(=O)Oc1cccc2c1C(=O)OC(C(CC(C)C)NC(=O)C(O)C1OC(=O)CC1NC(=O)C1CCCO1)C2 (stereo not shown) [IIIa-4-5]	–	33%
CC(C)=CCC/C(C)=C/CC/C(C)=C/CCC(=O)NC1CC(=O)OC1C(O)C(=O)NC(CC(C)C)C1Cc2cccc(O)c2C(=O)O1 (stereo not shown) [IIIa-1-67]	–	66%
COc1ccc(CNC(=O)CC(N)C(O)C(O)C(=O)NC(CC(C)C)C2Cc3cccc(O)c3C(=O)O2)cc1 (stereo not shown) [VII-1-24]	83%	–
CC(C)CC(NC(=O)C(O)C1OC(=O)CC1NC(=O)C12CC3CC(CC(C3)C1)C2)C1Cc2cccc(O)c2C(=O)O1 (stereo not shown) [IIIa-1-16]	–	56%
CCCCOC(C(=O)NC(CC(C)C)C1Cc2cccc(OC)c2C(=O)O1)C1OC(=O)CC1NC(=O)CCC (stereo not shown) [IIIa-7-10]	–	33%
CCCCCSCCNC1CC(=O)OC1C(O)C(=O)NC(CC(C)C)C1Cc2cccc(OCC)c2C(=O)O1 (stereo not shown) [IIIa-22-40]	–	94%
CC(C)CC(NC(=O)C(O)C1OC(=O)CC1N)C1Cc2cccc(OC3CC3)c2C(=O)O1 (stereo not shown) [IIIa-13-10]	–	94%
CCCCCCCCOc1cccc2c1C(=O)OC(C(CC(C)C)NC(=O)C(O)C1OC(=O)CC1NCCCCCCC)C2 (stereo not shown) [IIIa-22-12]	–	72%
CCNC(CC(=O)O)C(O)C(O)C(=N)NC(CC(C)C)C1Cc2cccc(OC(C)=O)c2C(=O)O1 (stereo not shown) [Vb-13-1]	–	78%
Cc1ccc(C(C)C)cc2c(C(=O)NC3CC(=O)OC3C(O)C(=O)NC(CC(C)C)C3Cc4cccc(O)c4C(=O)O3)c(C)cc1-2 (stereo not shown) [IIIa-1-70]	–	56%
CC(C)CC(NC(=O)C(O)C1OC(=O)CC1NC(=O)c1nnnn1C)C1Cc2cccc(O)c2C(=O)O1 (stereo not shown) [IIIa-1-27]	–	66%
CCOc1cccc2c1C(=O)OC(C(CC(C)C)NC(=O)C(O)C1OC(=O)CC1NC(=O)CSC)C2 (stereo not shown) [IIIa-5-43]	–	44%
CNC(=O)C=CC(O)C(O)C(=O)NC(CC(C)C)C1Cc2cccc(O)c2C(=O)O1 (stereo not shown) [VIII-1-1]	–	56%
CCCC(=O)NC1CC(=O)OC1C(O)C(=O)NC(CC(C)C)C1Cc2cccc(O)c2C(=O)O1 (stereo not shown) [IIIa-1-3]	–	66%
CCCCOc1cccc2c1C(=O)OC(C(CC(C)C)NC(=O)C(OC)C1OC(=O)CC1NCC)C2 (stereo not shown) [IIIa-24-16]	–	56%

Compound	inhibition in vivo at 25 mg/kg	inhibition in vivo at 50 mg/kg
CC(C)CC(NC(=O)C(O)C(O)C(N)CC(=O)NC(C)C)C1Cc2cccc(O)c2C(=O)O1 (stereo not shown) [VII-1-42]	94%	–
CCCC(=O)Oc1cccc2c1C(=O)OC(C(CC(C)C)NC(=O)C(OCC)C1OC(=O)CC1N)C2 (stereo not shown) [IIIa-17-3]	–	56%
CC(C)CCOc1cccc2c1C(=O)OC(C(CC(C)C)NC(=O)C(O)C1C=CC(=O)O1)C2 (stereo not shown) [IVa-4-4]	–	44%
CCCCCCCCCCCCCCCCCC(=O)NC1CC(=O)OC1C(OCC)C(=O)NC(CC(C)C)C1Cc2cccc(OCCCCCCC)c2C(=O)O1 (stereo not shown) [IIIa-7-4]	–	22%
CC(=O)OC(C(=O)NC(CC(C)C)C1Cc2cccc(O)c2C(=O)O1)C1C=CC(=O)O1 (stereo not shown) [IVa-1-1]	–	44%
CCOc1cccc2c1C(=O)OC(C(CC(C)C)NC(=O)C(OC(C)=O)C(O)C(N)CC(N)=O)C2 (stereo not shown) [VII-6-1]	66%	–
CC(C)CC(NC(=O)C(O)C1OC(=O)CC1NC(=O)C1CCCCCCC1)C1Cc2cccc(O)c2C(=O)O1 (stereo not shown) [IIIa-1-62]	–	66%
CCCC=Cc1ccc(COc2cccc3c2C(=O)OC(C(CC(C)C)NC(=O)C(O)C2OC(=O)CC2NC(=O)CCC)C3)cc1 (stereo not shown) [IIIa-5-120]	–	33%
CCCCNC(=O)CC(NCCCC)C(O)C(O)C(=O)NC(CC(C)C)C1Cc2cccc(O)c2C(=O)O1 (stereo not shown) [VII-10-4]	72%	–
COC(C)CC(=O)Oc1cccc2c1C(=O)OC(C(CC(C)C)NC(=O)C(O)C1C=CC(=O)O1)C2 (stereo not shown) [IVa-3-17]	–	33%
COc1cccc2c1C(=O)OC(C(CC(C)C)NC(=O)C(O)C1OC(=O)CC1NC(=O)C(Cl)(Cl)Cl)C2 (stereo not shown) [IIIa-5-7]	–	44%
CCCC(=O)NC1CC(=O)OC1C(O)C(=O)NC(CC(C)C)C1Cc2cccc(OC(C)C)c2C(=O)O1 (stereo not shown) [IIIa-5-121]	–	33%
CCOc1cccc2c1C(=O)OC(C(CC(C)C)NC(=N)C(O)C(O)C(N)CC(=O)O)C2 (stereo not shown) [Vb-5-1]	–	94%
COc1cccc2c1C(=O)OC(C(CC(C)C)NC(=O)C(O)C1OC(=O)CC1N)C2 (stereo not shown) [IIIa-13-1]	–	100%
CCCCOc1cccc2c1C(=O)OC(C(CC(C)C)NC(=O)C(OC)C(O)C(CC(N)=O)NC(C)=O)C2 (stereo not shown) [VII-34-1]	66%	–
CCCCCCCCCCCCCCCCCCOc1cccc2c1C(=O)OC(C(CC(C)C)NC(=O)C(O)C1OC(=O)CC1NC(=O)CCCCCC)C2 (stereo not shown) [IIIa-5-12]	–	33%
CCOc1cccc2c1C(=O)OC(C(CC(C)C)NC(=O)C(O)C1OC(=O)CC1NC(=O)Cc1cccnc1)C2 (stereo not shown) [IIIa-5-57]	–	33%
CNC(CC(N)=O)C(O)C(O)C(=O)NC(CC(C)C)C1Cc2cccc(O)c2C(=O)O1 (stereo not shown) [VII-19-1]	100%	–
CC(C)CC(NC(=O)C(O)C1OC(=O)CC1NC(=O)C(Cl)(Cl)Cl)C1Cc2cccc(O)c2C(=O)O1 (stereo not shown) [IIIa-1-12]	–	66%
